These results are taken from US20060073172A1, “Stabilized ophthalmic solution for the treatment of glaucoma and lowering intraocular pressure” (priority 2004, published 2006).

One data set deals with 5-HT2 receptors. To be noted: cited from earlier work; for 5-HT2 receptor subtype selectivity: 5-HT2A, 5-HT2B, 5-HT2C.
Data set [1] in a line: Stabilization of 1-(2-aminopropyl)-indazol-6-ol by classical antioxidants. In kind it is physicochemical. To be noted: aqueous solution.

As to `COc1cc(C[C@@H](C)N)c(OC)cc1I` [(R)-DOI, (R)4-iodo-2,5 dimethoxy-α-methyl-benzeneethanamine], the “5-HT2 receptor subtype selectivity” value in the data set on 5-HT2 receptors was “not selective amongst the 5-HT2 receptor subtypes”.
As for `CC(N)Cc1c[nH]c2ccc(O)cc12` (stereo not drawn) [α-methyl-serotonin], in the data set with 5-HT2 receptors, the “5-HT2 receptor subtype selectivity” value is “modest receptor subtype selectivity: 5-HT2B>5-HT2C>5-HT2A” and the 5-HT2 agonist activity result was “potent 5-HT2 agonist”.
`CC(N)Cn1ncc2ccc(O)cc21` (centres unmarked) [AL-34662, 1-(2-aminopropyl)-indazol-6-ol]: the “Stabilization by classical antioxidants (sodium metabisulfite, propyl gallate, ascorbic acid)” value in data set [1] was “did not stabilize”.
Take `COc1ccc2[nH]cc(CC(C)N)c2c1` (stereo not drawn) [5-methoxy-α-methyltryptamine]: in the data set on 5-HT2 receptors, the “5-HT2 receptor subtype selectivity” value is “profile similar to that of α-methyl-serotonin”.
